Paper PMC5082805 (PLoS ONE, 2016)
Where two headings read alike, the source gives them in different places. Where a SMILES comes first, the peptide text is derived from it. Bridges are numbered along the chain shown (N, C = ends). [ ]: non-standard residue; d: D form. Orn(iPr) = CC(C)NCCC[C@H](N)C(=O)O; Aad = N[C@@H](CCCC(=O)O)C(=O)O

What was measured:
[1] = system: non-atherosclerotic (NA) and atherosclerotic (A) rabbits; assay: Electrocardiogram monitoring during incremental infusion rates; type: in vivo, New Zealand White rabbits; settings: A and NA animals, NE finding at the highest rate tested (1 μg.kg^−1.min^−1)
Protocol: (§1) Following overnight fasting, the rabbits were pre-anesthetized intramuscularly using a mixture of 15 mg/kg ketamine hydrochloride (Imalgène 500®, Rhône Mérieux, Lyon, France) and 0.7 mg/kg xylazine hydrochloride (Rompun® 2%, KVP, Kiel, Germany). The animals were tracheotomized and maintained under isoflurane anesthesia (2% v/v isoflurane in oxygen [isoflurane: AErrane®, Baxter, Maurepas, France]). The electrocardiogram was monitored continuously (Lead II derivation) during surgery. A femoral vein was cannulated using a polyvinyl chloride catheter to administer selepressin, AVP, NE, or vehicle while a carotid artery was cannulated for blood sampling. A Millar catheter-tip transducer was introduced into the femoral artery to determine arterial pressure. The animals were infused intravenously using Ringer lactate (Lavoisier, Paris, France) at 2 mL/h.
AP and electrocardiogram signals were amplified (Hugo Sachs Elektronik, March-Hugstetten, Germany) and recorded continuously using a computerized data acquisition system (Notocord, Croissy-sur-Seine, France) with acquisition rates of 500 and 1000 Hz for arterial pressure and electrocardiogram, respectively.

[2] = system: non-atherosclerotic (NA) and atherosclerotic (A) rabbits; assay: Hemodynamic dose-response to cumulative intravenous infusion rates in anesthetized rabbits; type: in vivo, New Zealand White rabbits; settings: incremental i.v. infusion rates, nonlinear regression, mean ± standard error of the mean
Protocol: Thirty male New Zealand White rabbits (2.6–3.6 kg, Centre d’élevage G. Achard de la Vente, St Mars d'Egrenne, France), aged 3–4 months were individually housed in stainless steel mesh cages (500 × 600 × 400 mm) at 19–25°C and ≥35% humidity with a 12-h light/dark cycle. Each animal received Bolapin (Huttepain Bouix, Le Mans, France) at approximately 60 g/day as standard diet (non-atherosclerotic animals) or supplemented with1% cholesterol for 6 weeks to induce atherosclerosis (both n = 15). The animals were fasted for at least 12 h before clinical laboratory blood sampling, on the day of the experiment, and before scheduled necropsy. Water was supplied ad libitum. On completion of cholesterol feeding, the animals were prepared surgically to determine cardiovascular variables and infused intravenously with selepressin, arginine vasopressin (AVP), or norepinephrine (NE) at incremental rates.
as §1
A left parasternal image window was used to obtain a long-axis view, visualizing the entire ascending aorta, the innominate artery branch, and the left common carotid arteries in the same plane. Prior to dosing, all of the animals (atherosclerotic [A] and non-atherosclerotic [NA]) were examined by 2-dimensional ultrasonography using a 15-MHz linear probe. The thoracic aorta was visualized at up to 30 frames/s using a 120-μm axial resolution. An adequate penetration depth was set to several centimeters beyond the far wall of the ascending aorta. Intima-media thickness (IMT) immediately proximal to the innominate artery branch site was determined in a consistent manner in each animal using the arterial branching points as anatomic landmarks.
Doppler ultrasonographic measurements were performed using Acuson Séquoia 526 color Doppler equipment (Siemens, Saint-Denis, France). Aortic flow measurements were performed from a trans-hepatic view for perfect alignment (cos(theta) of the Doppler equation ≈1). Time velocity integrals and aortic diameter were determined for each time point by aortic echography.
Aortic blood flow (ABF, mL/min) was calculated according to the following formula: ABF (mL/min) = SV (mL/beat)×HR (beats/min) where:
• HR: heart rate • SV (stroke volume, mL) = ITVAo (cm) × SAo (cm^2) • ITVAo: Integral time velocity of the aorta evaluated from the mean of three to five consecutive velocity waveforms (i.e., three to five heartbeats) • SAo (Section of the aorta) = (π × DAo^2)/4 • DAo: Aortic diameter (cm) determined by aortic echography close to the maximal velocity measurement site.
Before treatment, the animals (n = 5 for each drug and for A vs. NA) were infused with the corresponding vehicle (10 mM acetate buffer at 9% v/v in 0.9% NaCl for selepressin, 10 mM acetate buffer at 0.3% v/v in 0.9% NaCl for AVP, and in 0.9% NaCl for NE) at 1 mL.kg^−1.h^−1 for 15 min. Selepressin acetate, AVP, and NE were administered via the femoral vein. […]

[3] = system: non-atherosclerotic (NA) and atherosclerotic (A) rabbits; assay: Serum biomarkers of cardiac injury (ASAT, CK, cardiac troponin I); type: in vivo, New Zealand White rabbits; settings: at the end of administration of the highest infusion rate, n = 5
[4] = Plasma bioanalysis at the time of maximum hemodynamic effect; settings: New Zealand White, rabbit, in vivo, iv; atherosclerotic (A) rabbits; incremental i.v. infusion; LC-MS/MS for selepressin and AVP, LC with colorimetric detection for NE; mean ± standard deviation, n = 5; SD; read-out: maximum plasma concentration
Protocol: Blood for bioanalysis was sampled from all of the animals both before the first infusion (vehicle control) and for each infusion rate at the time of maximum hemodynamic effect. Quantification of selepressin, AVP, or NE in plasma samples was performed using validated liquid chromatography with tandem mass spectrometric detection for selepressin and AVP and validated liquid chromatography with colorimetric detection for NE. All of the animals treated with selepressin, AVP, or NE were exposed in a dose-dependent manner, with no difference between A and NA animals. The maximum selepressin plasma concentrations (mean ± standard deviation) were 329±52 and 367±48 ng/mL for A and NA animals, respectively, for AVP they were 122±27 and 100±46.2 ng/mL for A and NA, respectively, and for NE they were 301±126 and 345±164 ng/mL for A and NA, respectively.

healthy dogs = settings: cited from earlier work
[5] = healthy rats; ref unpublished results; cited from earlier work
[6] = healthy dogs; ref unpublished results; cited from earlier work
[7] = atherosclerotic (A) rabbits, SEM
[8] = non-atherosclerotic (NA) rabbits
[9] = non-atherosclerotic (NA) rabbits, SEM

SMILES	electrocardiogram abnormalities (including ST segment elevation) [1]	Log ED50, aortic blood flow (ABF) [2, 7]	Log ED50, diastolic arterial pressure (DAP) [2, 7]	Log ED50, heart rate (HR) [2, 7]	Log ED50, mean arterial pressure (MAP) [2, 7]	Log ED50, stroke volume (SV) [2, 7]	Log ED50, systolic arterial pressure (SAP) [2, 7]	Log ED50, mean arterial pressure (MAP) [2, 8]	Log ED50, aortic blood flow (ABF) [2, 9]	Log ED50, diastolic arterial pressure (DAP) [2, 9]	Log ED50, heart rate (HR) [2, 9]	Log ED50, stroke volume (SV) [2, 9]	Log ED50, systolic arterial pressure (SAP) [2, 9]	serum aspartate aminotransferase activity vs baseline ([3]; atherosclerotic (A) rabbits)	serum aspartate aminotransferase activity vs baseline [3, 8]	Cmax [4] [ng/mL]	Log ED50, mean arterial pressure (MAP) [2, 9]	coronary ischemic liability (healthy dogs)	half-life [5]	half-life [6] [min]
NC(=O)CC[C@@H]1NC(=O)[C@H](Cc2ccccc2)NC(=O)[C@H](Cc2ccc(O)cc2)NC(=O)[C@@H](N)CSSC[C@@H](C(=O)N2CCC[C@H]2C(=O)N[C@@H](CCCN=C(N)N)C(=O)NCC(N)=O)NC(=O)[C@H](CC(N)=O)NC1=O [AVP, arginine vasopressin]	No electrocardiogram abnormalities	−8.4±0.2 log(ng.kg^-1.min^-1)	−8.7±1.1 log(ng.kg^-1.min^-1)	−8.5±0.5 log(ng.kg^-1.min^-1)	−8.6±1.4 log(ng.kg^-1.min^-1)	−7.9±5.1 log(ng.kg^-1.min^-1)	−8.6±3.2 log(ng.kg^-1.min^-1)	No fit	−8.1±0.5 log(ng.kg^-1.min^-1)	−10.0±7.5 log(ng.kg^-1.min^-1)	−8.6±0.2 log(ng.kg^-1.min^-1)	−7.5±5.9 log(ng.kg^-1.min^-1)	−6.6±1.9 log(ng.kg^-1.min^-1)	not significantly different from baseline	not significantly different from baseline	122 ± 27	–	–	–	–
NC[C@H](O)c1ccc(O)c(O)c1 [NE, norepinephrine]	Some premature ventricular beats	−6.2±0.7 log(ng.kg^-1.min^-1)	−5.8±0.4 log(ng.kg^-1.min^-1)	−7.0 ±1.2 log(ng.kg^-1.min^-1)	−5.7±0.3 log(ng.kg^-1.min^-1)	−5.4±0.4 log(ng.kg^-1.min^-1)	–	–	−6.5±0.4 log(ng.kg^-1.min^-1)	−6.0±0.3 log(ng.kg^-1.min^-1)	−6.9±0.9 log(ng.kg^-1.min^-1)	−6.5±0.4 log(ng.kg^-1.min^-1)	−6.1±0.2 log(ng.kg^-1.min^-1)	–	–	–	−6.1±0.3 log(ng.kg^-1.min^-1)	–	–	–
CC[C@H](C)[C@@H]1NC(=O)[C@H](Cc2ccccc2)NC(=O)[C@@H](N)CSSC[C@@H](C(=O)N2CCC[C@H]2C(=O)N[C@@H](CCCNC(C)C)C(=O)NCC(N)=O)NC(=O)[C@H](CC(N)=O)NC(=O)[C@H](CCCC(N)=O)NC1=O [Selepressin, selepressin] (H-CFI[Aad](NH2)NCP[Orn(iPr)]G-NH2; disulfide 1-6)	No electrocardiogram abnormalities	–	–	–	–	–	–	–	–	–	–	–	–	not significantly different from baseline	not significantly different from baseline	329 ± 52	–	no relevant coronary ischemic liability	approximately 20 min	~30
